The results in this text go back to patent US20230017532A1 (Hoffmann-La Roche Inc., priority 2018, published 2023).

Test [1] has as its system Acinetobacter baumannii ATCC17961. The experiment in a line: Antimicrobial susceptibility testing: 90% growth inhibitory concentration (IC90) determination, Iso-Sensitest broth, OD 600 nm. It counts as cell-based. The note with it: read-out: ATCC 17961 IC90. The gist of the method:
(§1)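 Twofold serial dilutions (e.g. 50–0.097 μM final) incubated with ~5×10^5 CFU/ml in Iso-Sensitest broth at 35±2 °C. OD600 read every 20 min for 16 h; IC90 derived from growth inhibition during logarithmic phase.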

In test [2] the test system is Acinetobacter baumannii ATCC17978. The description is as above. The test is classed as cell-based. The note with it: Acinetobacter baumannii, ATCC17978, 16 h, read-out: ATCC 17978 IC90. An outline of the steps:
as §1

Setting [3] is: 90% growth inhibitory concentration, Acinetobacter baumannii ATCC17961, Iso-Sensitest broth, OD 600 nm over 16 h.
Where [4] appears, read: Acinetobacter baumannii, ATCC17961, 16 h.
[5] abbreviates: 90% growth inhibitory concentration, Acinetobacter baumannii ATCC17978, Iso-Sensitest broth, OD 600 nm over 16 h.

Structures can show the parent of a compound that is named as a salt. Where two headings read alike, the source gives them in different places.

For orientation: IC90 means the concentration needed for an effect of 90%. As for `CCc1cc(Nc2nccn3c(-c4ccc(OC)cc4S(=O)(=O)NC)cnc23)ccc1C(=O)NCCOCCN` [Example 55, N-[2-(2-aminoethoxy)ethyl]-2-ethyl-4-[[3-[4-methoxy-2-(methylsulfamoyl)phenyl]imidazo[1,2-a]pyrazin-8-yl]amino]benzamide; formic acid], the IC90 in test [1] (setting [3]) stood at 2.79 µM.

For the molecule `CCc1cc(Nc2nccn3c(-c4ccc(OC)cc4C(F)(F)F)cnc23)ccc1C(=O)NCCOCCN` [Example 56, N-(2-(2-aminoethoxy)ethyl)-2-ethyl-4-((3-(4-methoxy-2-(trifluoromethyl)phenyl)imidazo[1,2-a]pyrazin-8-yl)amino)benzamide hydrochloride], the IC90 in test [1] (setting [4]) came out at 0.08 µM.

Consider `COc1ccc(-c2cnc3c(Nc4ccc(C(=O)NCCOCCN)c(C)c4F)nccn23)c(F)c1F` [Example 61, dihydrochloride], for which the IC90 in test [1] (setting [4]) came to 0.14 µM.

As to `COc1ccc(-c2cnc3c(Nc4cc(C)c(C(=O)NCCOCCN)c(Cl)c4)nccn23)c(F)c1F` [Example 62, N-(2-(2-aminoethoxy)ethyl)-2-chloro-4-((3-(2,3-difluoro-4-methoxyphenyl)imidazo[1,2-a]pyrazin-8-yl)amino)-6-methyl-benzamide], the 90% effect concentration (IC90) in test [1] (setting [3]) was determined as 1.87 µM.

Turning to `COc1ccc(-c2cnc3c(Nc4ccc(C(=O)NCCOCCN)c(F)c4F)nccn23)c(F)c1F` [Example 63, N-(2-(2-aminoethoxy)ethyl)-4-((3-(2,3-difluoro-4-methoxy-phenyl)imidazo [1,2-a]pyrazin-8-yl)amino)-2,3-difluoro-benzamide], the IC90 in test [1] (setting [3]) came out at 0.88 µM.

Consider `CCc1cc(Nc2nccn3c(-c4ccc(OC)c(F)c4F)cnc23)ccc1C(=O)NCCOCCN(C)CC(=O)NS(C)(=O)=O` [Example 66, 4-((3-(2,3-difluoro-4-methoxyphenyl)imidazo[1,2-a]pyrazin-8-yl)amino)-2-ethyl-N-(2-(2-(methyl(2-(methylsulfonamido)-2-oxoethyl)amino)ethoxy)ethyl)benzamide dihydrochloride], for which, in test [1] (setting [4]), the IC90 stood at 0.37 µM.

For the molecule `CCc1cc(Nc2nccn3c(-c4ccc(OC)c(F)c4F)cnc23)ccc1C(=O)NCCOCC(C)(C)N` [Example 72, N-[2-(2-amino-2-methyl-propoxy)ethyl]-4-[[3-(2,3-difluoro-4-methoxy-phenyl)imidazo[1,2-a]pyrazin-8-yl]amino]-2-ethyl-benzamide; formic acid], the IC90 in test [1] (setting [4]) was 0.04 µM.

Take `CCc1cc(Nc2nccn3c(-c4ccc(OC)c(F)c4F)cnc23)ccc1C(=O)NCCNCC(=O)N1CCN[C@H](CO)C1` [Example 178, 4-[[3-(2,3-difluoro-4-methoxyphenyl)imidazo[1,2-a]pyrazin-8-yl]amino]-2-ethyl-N-[2-[[2-[(3S)-3-(hydroxymethyl)piperazin-1-yl]-2-oxoethyl]amino]ethyl]benzamide]: the IC90 in test [1] (setting [3]) was found to be 0.16 µM.

For the molecule `CCc1cc(Nc2nccn3c(-c4cccc(F)c4C(F)(F)F)cnc23)ccc1C(=O)NCCOCCN` [Example 179, N-[2-(2-aminoethoxy)ethyl]-2-ethyl-4-[[3-[3-fluoro-2-(trifluoromethyl)phenyl]imidazo [1,2-a]pyrazin-8-yl]amino] benzamide], the IC90 in test [1] (setting [3]) was found to be 0.3 µM.

For the molecule `C=CCNCCCNC(=O)c1ccc(Nc2nccn3c(-c4ccc(OC)c(F)c4F)cnc23)cc1CC` [Example 181, 4-[[3-(2,3-difluoro-4-methoxyphenyl)imidazo[1,2-a]pyrazin-8-yl]amino]-2-ethyl-N-[3-(prop-2-enylamino)propyl] benzamide; hydrochloride], the IC90 in test [1] (setting [3]) came out at 0.16 µM.

As for `CCc1cc(Nc2nccn3c(-c4ccc(O)cc4C(F)(F)F)cnc23)ccc1C(=O)NCCOCCN` [Example 182, N-[2-(2-aminoethoxy)ethyl]-2-ethyl-4-[[3-[4-hydroxy-2-(trifluoromethyl)phenyl]imidazo [1,2-a]pyrazin-8-yl]amino] benzamide; hydrochloride], the IC90 in test [1] (setting [3]) was 0.22 µM.

As for `COc1ccc(-c2cnc3c(Nc4cc(C)c(C(=O)NCCOCCN(C)C)c(F)c4)nccn23)c(F)c1F` [Example 190, 4-[[3-(2,3-difluoro-4-methoxyphenyl)imidazo[1,2-a]pyrazin-8-yl]amino]-N-[2-[2-(dimethylamino)ethoxy]ethyl]-2-fluoro-6-methylbenzamide], the IC90 in test [1] (setting [3]) turned out to be 0.056 µM.

On to `COc1ccc(-c2cnc3c(Nc4cc(C)c(C(=O)NCCOCCN)c(F)c4)nccn23)c(F)c1F` [Example 191, N-[2-(2-amino-ethoxy]-4-[[3-(2,3-difluoro-4-methoxyphenyl)imidazo[1,2-a]pyrazin-8-yl]amino]-2-fluoro-6-methyl-benzamide; hydrochloride], for which the IC90 in test [1] (setting [3]) was found to be 0.087 µM.

In the case of `CCc1cc(Nc2nccn3c(-c4ccc(OC(F)F)c(F)c4F)cnc23)ccc1C(=O)NCCCNCCO` [Example 193, 4-((3-(4-(difluoro-methoxy)-2,3-difluorophenyl)imidazo[1,2-a]pyrazin-8-yl)amino)-2-ethyl-N-(3-((2-hydroxyethyl)amino)propyl) benzamide], the IC90 in test [2] (setting [5]) is 0.28 µM.

In the case of `CCc1cc(Nc2nccn3c(-c4ccc(OC(F)F)c(F)c4F)cnc23)ccc1C(=O)NCCOCCO[C@H]1O[C@H](CO)[C@H](O)[C@H](O)[C@H]1O` [Example 194, 4-((3-(4-(difluoro-methoxy)-2,3-difluorophenyl)imidazo[1,2-a]pyrazin-8-yl)amino)-2-ethyl-N-(2-(2-(((2S,3R, 4S,5R,6R)-3,4,5-trihydroxy-6-(hydroxymethyl)tetrahydro-2H-pyran-2-yl)oxy)ethoxy)ethyl) benzamide formate], the IC90 in test [2] is 0.35 µM.

For the molecule `C#CCOc1ccc(-c2cnc3c(Nc4ccc(C(=O)NCCNCCO)c(CC)c4)nccn23)c(F)c1F` [Example 195, 4-[[3-(2,3-difluoro-4-prop-2-ynoxy-phenyl)imidazo[1,2-a]pyrazin-8-yl]amino]-2-ethyl-N-[2-(2-hydroxyethyl-amino)ethyl] benzamide], the IC90 in test [2] (setting [5]) came to 0.49 µM.

`CCc1cc(Nc2nccn3c(-c4ccc(OC)c(F)c4F)cnc23)ccc1C(=O)NCCNCCO` [Example 196, 4-((3-(2,3-difluoro-4-methoxyphenyl)imidazo[1,2-a]pyrazin-8-yl)amino)-2-ethyl-N-(2-((2-hydroxyethyl)amino)ethyl) benzamide hydrochloride]: in test [2] (setting [5]), the IC90 is 0.29 µM.

Take `CCc1cc(Nc2nccn3c(-c4ccc(OC)c(F)c4F)cnc23)ccc1C(=O)NCCCCNCC(=O)O` [Example 197, (4-(4-((3-(2,3-difluoro-4-methoxyphenyl)imidazo[1,2-a]pyrazin-8-yl)amino)-2-ethylbenzamido)butyl)glycine hydrochloride]: the IC90 in test [2] (setting [5]) worked out at 0.37 µM.

In the case of `COc1ccc(-c2cnc3c(Nc4ccc(C(=O)NCCOCCN)c(F)c4)nccn23)c(F)c1F` [Example 199, N-(2-(2-amino-ethoxy)ethyl)-4-((3-(2,3-difluoro-4-methoxyphenyl)imidazo[1,2-a]pyrazin-8-yl)amino)-2-fluorobenzamide], the 90% effect concentration (IC90) in test [1] (setting [3]) stood at 0.38 µM.

With `C#CCOc1ccc(-c2cnc3c(Nc4ccc(C(=O)N[C@@H](C)CNCCN)c(CC)c4)nccn23)c(F)c1F` [Example 200], the IC90 in test [1] (setting [3]) stood at 0.63 µM.

Turning to `C#CCOc1ccc(-c2cnc3c(Nc4ccc(C(=O)N[C@@H](C)CNCCNC(C)=O)c(CC)c4)nccn23)c(F)c1F` [Example 201, N-[(1S)-2-(2-acetamidoethyl-amino)-1-methyl-ethyl]-4-[[3-(2,3-difluoro-4-prop-2-ynoxy-phenyl)imidazo[1,2-a]pyrazin-8-yl]amino]-2-ethyl-benzamide], in test [1] (setting [3]), the IC90 was determined as 0.36 µM.

For `CCc1cc(Nc2nccn3c(-c4ccc(OC)c(F)c4F)cnc23)cc(F)c1C(=O)NCCOCCN` [Example 202, N-(2-(2-amino-ethoxy)ethyl)-4-((3-(2,3-difluoro-4-methoxyphenyl)imidazo[1,2-a]pyrazin-8-yl)amino)-2-ethyl-6-fluorobenzamide dihydrochloride], the IC90 in test [1] (setting [3]) was 0.2 µM.

Take `CCc1cc(Nc2nccn3c(-c4ccc(OC)c(F)c4F)cnc23)ccc1C(=O)NCCOCC(=O)N1CCN[C@H](CO)C1` [Example 203, 4-[[3-(2,3-difluoro-4-methoxy-phenyl)imidazo [1,2-a]pyrazin-8-yl]amino]-2-ethyl-N-[2-[2-[(3S)-3-(hydroxymethyl)piperazin-1-yl]-2-oxo-ethoxy]ethyl]benzamide]: in test [1] (setting [3]), the IC90 worked out at 0.43 µM.

Regarding `CCc1cc(Nc2nccn3c(-c4ccc(Oc5ccccn5)c(F)c4F)cnc23)ccc1C(=O)NCCOCC(=O)N1CCN[C@H](CO)C1` [Example 204, 4-[[3-[2,3-difluoro-4-(2-pyridyloxy)phenyl]imidazo [1,2-a]pyrazin-8-yl]amino]-2-ethyl-N-[2-[2-[(3S)-3-(hydroxymethyl)piperazin-1-yl]-2-oxo-ethoxy]ethyl]benzamide], the IC90 in test [1] (setting [3]) turned out to be 0.53 µM.

Take `CCc1cc(Nc2nccn3c(-c4ccc(Oc5ccccn5)c(F)c4F)cnc23)ccc1C(=O)NCCNCC(=O)N1CCN[C@H](CO)C1` [Example 205, 4-[[3-[2,3-difluoro-4-(2-pyridyloxy)phenyl]imidazo [1,2-a]pyrazin-8-yl]amino]-2-ethyl-N-[2-[[2-[(3S)-3-(hydroxymethyl)piperazin-1-yl]-2-oxo-ethyl]amino]ethyl]benzamide]: the IC90 in test [1] (setting [3]) amounted to 0.59 µM.

Take `CCc1cc(Nc2nccn3c(-c4ccc(OC)cc4CC)cnc23)ccc1C(=O)NCCOCCN` [Example 206, N-(2-(2-amino-ethoxy)ethyl)-2-ethyl-4-((3-(2-ethyl-4-methoxyphenyl)imidazo[1,2-a]pyrazin-8-yl)amino)benzamide hydrochloride]: in test [1] (setting [3]), the IC90 was 0.26 µM.

As for `C#CCOc1ccc(-c2cnc3c(Nc4ccc(C(=O)N[C@@H](C)CNCC(N)=O)c(CC)c4)nccn23)c(F)c1F` [Example 207, N-[(1S)-2-[(2-amino-2-oxo-ethyl)amino]-1-methyl-ethyl]-4-[[3-(2,3-difluoro-4-prop-2-ynoxy-phenyl)imidazo [1,2-a]pyrazin-8-yl]amino]-2-ethyl-benzamide], the IC90 in test [1] (setting [3]) worked out at 0.35 µM.
